Measured values from patent US20070066629A1.
Like-named read-outs stand apart in the source and are kept apart here.

Tested on: Corticium solani (syn. Rhizoctonia sasakii)
Conditions: individual active compound, rice, evaluated after 11 days, untreated control 81% infection
Description: 1% by weight of the emulsifier Uniperol® EL (wetting agent having emulsifying and dispersing action based on ethoxylated alkylphenols) was added to this solution, and the solution was diluted with water to the desired concentration.
The next day, oat grains infected with Corticium solani were placed into the pots (in each case 5 grains per pot). The plants were then placed in a chamber at 26° C. and maximum atmospheric humidity.
Evaluation is carried out by determining the infected leaf areas in percent. These percentages were converted into efficacies.
The efficacy (E) is calculated as follows using Abbot's formula: E=(1−α/β)*100 α corresponds to the fungicidal infection of the treated plants in % and β corresponds to the fungicidal infection of the untreated (control) plants in %
An efficacy of 0 means that the infection level of the treated plants corresponds to that of the untreated control plants; an efficacy of 100 means that the treated plants were not infected.

SMILES | Efficacy in % of the untreated control (1 ppm in the spray liquor) [%] | Efficacy in % of the untreated control (4 ppm in the spray liquor) [%]
CC1CCN(c2c(-c3c(F)cccc3Cl)c(Cl)nc3ncnn23)CC1 [A] | 26 | –
CO/C=C(/C(=O)OC)c1ccccc1Oc1cc(Oc2ccccc2C#N)ncn1 [I (azoxystrobin), azoxystrobin] | 1 | 26
CC1CCN(c2c(-c3c(F)cc(F)cc3F)c(Cl)nc3ncnn23)CC1 [II, 5-chloro-7-(4-methylpiperidin-1-yl)-6-(2,4,6-trifluorophenyl)-[1,2,4]triazolo[1,5-a]pyrimidine] | 26 | –
